Toxic doses and inconclusive results are not listed. No stated cut-off is given here; in the data, active means T/C of 150% or more; inactive means T/C below 125%.
Test system: L1210 leukemia ip in BDF1 mice, survival T/C
Assay: NCI In Vivo Anticancer Drug Screen. Data for tumor model L1210 Leukemia (intraperitoneal) in B6D2F1 (BDF1) mice
Conditions: endpoint: mean survival time, higher = longer survival
In short: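 Ratio derived from survival: compound-dosed mice over vehicle-dosed mice, all bearing a transplantable tumor.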

[1] = dose: 100.0 mg/kg/injection, schedule: Q01DX001 (ip), vehicle: carboxymethylcellulose (CMC)
[2] = dose: 200.0 mg/kg/injection, schedule: Q01DX001 (ip), vehicle: carboxymethylcellulose (CMC)
[3] = dose: 400.0 mg/kg/injection, schedule: Q01DX001 (ip), vehicle: carboxymethylcellulose (CMC)
[4] = dose: 100.0 mg/kg/injection, schedule: Q01DX009 (ip), vehicle: Klucel (hydroxypropylcellulose) (HPC)
[5] = dose: 100.0 mg/kg/injection, schedule: Q04DX003 (ip), vehicle: Klucel (hydroxypropylcellulose) (HPC)
[6] = dose: 200.0 mg/kg/injection, schedule: Q01DX009 (ip), vehicle: Klucel (hydroxypropylcellulose) (HPC)
[7] = dose: 200.0 mg/kg/injection, schedule: Q04DX003 (ip), vehicle: Klucel (hydroxypropylcellulose) (HPC)
[8] = dose: 400.0 mg/kg/injection, schedule: Q01DX009 (ip), vehicle: Klucel (hydroxypropylcellulose) (HPC)
[9] = dose: 400.0 mg/kg/injection, schedule: Q04DX003 (ip), vehicle: Klucel (hydroxypropylcellulose) (HPC)
[10] = dose: 100.0 mg/kg/injection, schedule: Q04DX003 (ip), vehicle: saline
[11] = dose: 200.0 mg/kg/injection, schedule: Q04DX003 (ip), vehicle: saline
[12] = dose: 400.0 mg/kg/injection, schedule: Q04DX003 (ip), vehicle: saline
[13] = dose: 400.0 mg/kg/injection, schedule: Q01DX001 (ip), vehicle: saline
[14] = dose: 100.0 mg/kg/injection, schedule: Q04DX002 (ip), vehicle: Klucel (hydroxypropylcellulose) (HPC)
[15] = dose: 200.0 mg/kg/injection, schedule: Q04DX002 (ip), vehicle: Klucel (hydroxypropylcellulose) (HPC)

Measured: T/C

CCN(CC)C(C)C(=O)c1ccc2cc(Br)c3ccccc3c2c1 (stereo not drawn)
inactive: dose: 222.0 mg/kg/injection, schedule: Q01DX Z (ip), vehicle: methylcellulose (MC) 97 % of control | dose: 333.0 mg/kg/injection, schedule: Q01DX Z (ip), vehicle: methylcellulose (MC) 104 % of control | dose: 500.0 mg/kg/injection, schedule: Q01DX Z (ip), vehicle: methylcellulose (MC) 87 % of control

O=C1c2ccccc2C(=O)C1(c1ccccc1)c1ccccc1
inactive: [1] 103 % of control | [2] 97 % of control | [3] 92 % of control

CCC(C)Nc1ccc(NC(=S)Nc2ccc(NC(C)CC)cc2)cc1 (stereo not drawn)
inactive: dose: 100.0 mg/kg/injection, schedule: Q04DX002 (ip), vehicle: other 89 % of control | dose: 200.0 mg/kg/injection, schedule: Q04DX002 (ip), vehicle: other 86 % of control | dose: 400.0 mg/kg/injection, schedule: Q04DX002 (ip), vehicle: other 86 % of control

c1ccc2[nH]c(/N=N/c3nc4ccccc4[nH]3)nc2c1
inactive: [4] 95 % of control | [5] 94 % of control | [6] 105 % of control | [7] 98 % of control | [8] 87 % of control | [9] 98 % of control

COc1ccc(C2CCC(=O)CC2(O)C(=O)O)cc1 (stereo not drawn)
inactive: [4] 91 % of control | [5] 98 % of control | [6] 88 % of control | [7] 102 % of control | [8] 98 % of control | [9] 100 % of control

Oc1ccc2ccccc2c1/C=N/Nc1ccc2ccccc2n1
inactive: dose: 25.0 mg/kg/injection, schedule: Q01DX001 (ip), vehicle: saline with Tween-80 97 % of control | dose: 50.0 mg/kg/injection, schedule: Q01DX001 (ip), vehicle: saline with Tween-80 101 % of control | dose: 100.0 mg/kg/injection, schedule: Q01DX001 (ip), vehicle: saline with Tween-80 98 % of control

COc1ccc(C(CCl)(CCl)c2ccc(OC)cc2)cc1
inactive: dose: 100.0 mg/kg/injection, schedule: Q01DX009 (ip), vehicle: gum acacia 110 % of control | dose: 100.0 mg/kg/injection, schedule: Q04DX003 (ip), vehicle: gum acacia 92 % of control | dose: 200.0 mg/kg/injection, schedule: Q01DX009 (ip), vehicle: gum acacia 98 % of control | dose: 200.0 mg/kg/injection, schedule: Q04DX003 (ip), vehicle: gum acacia 101 % of control | dose: 400.0 mg/kg/injection, schedule: Q01DX009 (ip), vehicle: gum acacia 93 % of control | dose: 400.0 mg/kg/injection, schedule: Q04DX003 (ip), vehicle: gum acacia 103 % of control

OCC1(CO)CCCCC1
inactive: [5] 105 % of control | [7] 109 % of control | [9] 105 % of control

Cc1ccc(SSc2ccc(C)cc2)cc1
inactive: dose: 75.0 mg/kg/injection, schedule: Q01DX009 (ip), vehicle: saline 108 % of control | [10] 101 % of control | [11] 103 % of control | [12] 88 % of control

CCCCCCCCCC(=O)N1CCC(CCCc2ccccc2)CC1
inactive: dose: 75.0 mg/kg/injection, schedule: Q01DX001 (ip), vehicle: carboxymethylcellulose (CMC) 95 % of control | dose: 150.0 mg/kg/injection, schedule: Q01DX001 (ip), vehicle: carboxymethylcellulose (CMC) 92 % of control | dose: 300.0 mg/kg/injection, schedule: Q01DX001 (ip), vehicle: carboxymethylcellulose (CMC) 95 % of control

CCN(CC)CCOCC(=O)Nc1c(C)cccc1Cl
inactive: dose: 100.0 mg/kg/injection, schedule: Q04DX003 (ip), vehicle: saline sonified 93 % of control | dose: 200.0 mg/kg/injection, schedule: Q04DX003 (ip), vehicle: saline sonified 106 % of control

CCOc1ccccc1/C=N\NC(=O)CCCC(=O)N/N=C/c1ccccc1OCC
inactive: [13] 111 % of control

CN(C)Cc1ccccc1COC(=O)c1cccc(Br)c1
inactive: [14] 98 % of control | [15] 102 % of control

O=C1C=C(NCCCCC2CCCCC2)c2ccccc2C1=O
inactive: dose: 100.0 mg/kg/injection, schedule: Q01DX001 (ip), vehicle: saline 95 % of control | dose: 200.0 mg/kg/injection, schedule: Q01DX001 (ip), vehicle: saline 97 % of control | [13] 91 % of control

COc1cccc(OC)c1OC(=O)Nc1ccccc1C(F)(F)F
inactive: dose: 100.0 mg/kg/injection, schedule: Q01DX009 (ip), vehicle: saline 98 % of control | dose: 200.0 mg/kg/injection, schedule: Q01DX009 (ip), vehicle: saline 98 % of control | dose: 400.0 mg/kg/injection, schedule: Q01DX009 (ip), vehicle: saline 100 % of control

C/C=C/C=N/Nc1ccccc1
inactive: dose: 50.0 mg/kg/injection, schedule: Q04DX003 (ip), vehicle: other 87 % of control | dose: 100.0 mg/kg/injection, schedule: Q01DX001 (ip), vehicle: other 97 % of control | dose: 100.0 mg/kg/injection, schedule: Q04DX003 (ip), vehicle: other 92 % of control | dose: 200.0 mg/kg/injection, schedule: Q01DX001 (ip), vehicle: other 90 % of control | dose: 200.0 mg/kg/injection, schedule: Q04DX003 (ip), vehicle: other 93 % of control

O=Cc1c(Cl)n(C(=O)c2ccccc2)c2ccccc12
inactive: dose: 50.0 mg/kg/injection, schedule: Q04DX002 (ip), vehicle: Klucel (hydroxypropylcellulose) (HPC) 90 % of control | [14] 87 % of control | [15] 97 % of control

CN(C)C(=O)NS(=O)(=O)c1ccc(Cl)cc1
inactive: [5] 91 % of control | [7] 96 % of control | [9] 95 % of control

COC1(c2ccccc2)ON=C(c2ccccc2)C=C1c1ccccc1 (stereo not drawn)
inactive: [10] 93 % of control | [11] 91 % of control | [12] 99 % of control

c1ccc2c(c1)ccc1[nH]c3c(c12)CCCC3
inactive: [1] 95 % of control | [2] 90 % of control | [3] 97 % of control

From PubChem BioAssay AID248 (DTP/NCI, 2004)
